# Reference: patent publication US20080009418A1, “Selective Inhibitors” (Alchemia LTD., priority 2004, published 2008)
# Experiments:
# Mouse urotensin (mUR2) = biological target: T1, Mouse urotensin (mUR2) (Mus musculus, UniProt Q8VIH9); test: Radioligand binding, mouse urotensin mUR2 membranes, FlashPlate, [125I]-Urotensin II; conditions: compound at 10 μM, [125I]-Urotensin II
# T1 construct: purchased Perkin Elmer Biosignal
# T1 sequence (Q8VIH9 1-385): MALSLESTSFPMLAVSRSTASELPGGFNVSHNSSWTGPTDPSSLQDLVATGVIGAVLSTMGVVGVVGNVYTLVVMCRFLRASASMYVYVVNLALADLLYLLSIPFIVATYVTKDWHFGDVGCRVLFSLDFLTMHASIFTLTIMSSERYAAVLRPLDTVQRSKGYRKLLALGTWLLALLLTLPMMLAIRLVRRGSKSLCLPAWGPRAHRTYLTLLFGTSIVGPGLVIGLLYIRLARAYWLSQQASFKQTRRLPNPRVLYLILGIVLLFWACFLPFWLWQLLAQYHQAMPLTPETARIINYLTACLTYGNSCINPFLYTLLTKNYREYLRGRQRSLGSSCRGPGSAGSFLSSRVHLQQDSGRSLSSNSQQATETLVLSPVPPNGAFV
# How it was run: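 Cloned mouse urotensin (mUR2) receptor membranes from Perkin Elmer Biosignal were immobilized in FlashPlate microplates using a proprietary coating. Each well got 19.5 μl buffer, then 0.5 μl of DMSO, reference ligand, or compound. Adding 5 μl of [125I]-Urotensin II, diluted to 5× final concentration in binding buffer, started binding. Plates were sealed with TopSeal-A and incubated 1 hour at room temperature in the dark. Wells were counted for 30 seconds each on a TopCount after a 60-second delay, and percentage inhibition was calculated.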
# [1] = biological target: T2, Human melanin-concentrating hormone (MCH1) (Homo sapiens, UniProt Q99705); test: Radioligand binding, human melanin-concentrating hormone MCH1 membranes, FlashPlate, [125I]-S36057; conditions: compound at 10 μM
# T2 construct: purchased Perkin Elmer Biosignal
# T2 sequence (Q99705 whole entry): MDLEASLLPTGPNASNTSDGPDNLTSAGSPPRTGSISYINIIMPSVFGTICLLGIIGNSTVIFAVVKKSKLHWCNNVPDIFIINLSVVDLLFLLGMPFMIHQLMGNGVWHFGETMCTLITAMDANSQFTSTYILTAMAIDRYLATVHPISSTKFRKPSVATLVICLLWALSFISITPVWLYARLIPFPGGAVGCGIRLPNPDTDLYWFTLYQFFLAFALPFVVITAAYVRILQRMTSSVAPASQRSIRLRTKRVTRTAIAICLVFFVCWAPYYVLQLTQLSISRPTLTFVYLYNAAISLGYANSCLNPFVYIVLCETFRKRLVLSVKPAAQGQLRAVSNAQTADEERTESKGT
# How it was run: (§1)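 Cloned human receptor membranes were coated onto FlashPlate wells and incubated with radioligand and compound (added from a 0.5 mM DMSO daughter plate) for 1 hour at room temperature in the dark. Scintillation counting gave percent inhibition, with DMSO defining total and reference ligand defining non-specific binding.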
# Human melanocortin (MC5) = biological target: T3, Human melanocortin (MC5) (Homo sapiens, UniProt P33032); test: Radioligand binding, human melanocortin MC5 membranes, FlashPlate, [125I]-NDP-αMSH; conditions: compound at 10 μM, [125I]-NDP-αMSH
# T3 construct: purchased Perkin Elmer Biosignal
# T3 sequence (P33032 whole entry): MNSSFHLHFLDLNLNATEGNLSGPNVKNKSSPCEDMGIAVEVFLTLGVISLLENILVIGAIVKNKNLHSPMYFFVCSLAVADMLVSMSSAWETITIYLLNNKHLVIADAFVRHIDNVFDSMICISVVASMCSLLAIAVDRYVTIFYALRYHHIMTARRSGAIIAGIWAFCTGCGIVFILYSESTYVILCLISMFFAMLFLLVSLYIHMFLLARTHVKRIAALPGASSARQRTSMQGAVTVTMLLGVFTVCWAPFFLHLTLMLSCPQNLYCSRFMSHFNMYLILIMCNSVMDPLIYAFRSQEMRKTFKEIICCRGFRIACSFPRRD
# How it was run: as §1
# [2] = biological target: T4, Human neuropeptide Y (NPY-Y1) (Homo sapiens, UniProt P25929); test: Radioligand binding, human neuropeptide Y NPY-Y1 membranes, FlashPlate, [125I]-PYY; conditions: compound at 10 μM, [125I]-PYY
# T4 construct: purchased Perkin Elmer Biosignal
# T4 sequence (P25929 1-384): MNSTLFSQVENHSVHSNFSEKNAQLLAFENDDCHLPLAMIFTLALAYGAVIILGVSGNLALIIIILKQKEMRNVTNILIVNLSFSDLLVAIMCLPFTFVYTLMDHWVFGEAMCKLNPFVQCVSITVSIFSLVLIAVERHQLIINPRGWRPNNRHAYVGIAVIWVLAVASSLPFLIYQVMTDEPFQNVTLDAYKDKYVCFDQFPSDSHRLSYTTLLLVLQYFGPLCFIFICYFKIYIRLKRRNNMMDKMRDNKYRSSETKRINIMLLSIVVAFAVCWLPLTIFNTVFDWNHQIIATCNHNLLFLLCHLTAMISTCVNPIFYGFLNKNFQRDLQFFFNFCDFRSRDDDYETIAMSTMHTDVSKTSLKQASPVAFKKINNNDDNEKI
# How it was run: as §1
# Human opioid (ORL1) = biological target: T5, Human opioid (ORL1) (Homo sapiens, UniProt P41146); test: Radioligand binding, human opioid ORL1 membranes, FlashPlate, [125I]-Nociceptin; conditions: compound at 10 μM, [125I]-Nociceptin
# T5 construct: purchased Perkin Elmer Biosignal
# T5 sequence (P41146 whole entry): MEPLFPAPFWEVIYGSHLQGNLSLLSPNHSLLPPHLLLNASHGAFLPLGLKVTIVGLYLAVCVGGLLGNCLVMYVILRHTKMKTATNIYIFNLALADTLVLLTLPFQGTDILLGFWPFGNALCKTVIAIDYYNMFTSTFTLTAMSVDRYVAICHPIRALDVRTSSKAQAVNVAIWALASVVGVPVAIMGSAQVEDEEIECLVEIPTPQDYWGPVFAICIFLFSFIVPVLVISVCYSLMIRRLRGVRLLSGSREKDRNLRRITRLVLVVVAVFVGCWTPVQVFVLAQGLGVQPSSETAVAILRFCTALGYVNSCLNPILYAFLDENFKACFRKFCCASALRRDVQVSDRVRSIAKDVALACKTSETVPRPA
# How it was run: as §1
# Human Melanocortin (MC3) = biological target: T6, Human Melanocortin (MC3) (Homo sapiens, UniProt P41968); test: Radioligand binding, human melanocortin MC3 membranes, FlashPlate, [125I]-NDP-αMSH; conditions: compound at 10 μM, [125I]-NDP-αMSH
# T6 construct: purchased Perkin Elmer Biosignal
# T6 sequence (P41968 whole entry): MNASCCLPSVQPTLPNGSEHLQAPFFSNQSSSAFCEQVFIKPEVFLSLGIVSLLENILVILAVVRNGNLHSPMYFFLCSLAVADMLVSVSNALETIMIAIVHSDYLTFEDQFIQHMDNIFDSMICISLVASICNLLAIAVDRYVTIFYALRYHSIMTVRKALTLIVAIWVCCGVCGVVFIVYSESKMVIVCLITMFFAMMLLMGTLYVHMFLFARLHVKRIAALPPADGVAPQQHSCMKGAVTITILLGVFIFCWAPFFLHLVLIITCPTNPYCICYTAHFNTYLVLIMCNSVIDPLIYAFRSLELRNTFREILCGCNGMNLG
# How it was run: as §1
# Human κ-Opioid (KOP) = biological target: T7, Human κ-Opioid (KOP) (Homo sapiens, UniProt P41145); test: Radioligand binding, human κ-opioid (KOP) membranes, filtration, [3H]-Diprenorphine; conditions: compound at 10 μM, [3H]-Diprenorphine
# T7 construct: purchased Perkin Elmer Biosignal
# T7 sequence (P41145 whole entry): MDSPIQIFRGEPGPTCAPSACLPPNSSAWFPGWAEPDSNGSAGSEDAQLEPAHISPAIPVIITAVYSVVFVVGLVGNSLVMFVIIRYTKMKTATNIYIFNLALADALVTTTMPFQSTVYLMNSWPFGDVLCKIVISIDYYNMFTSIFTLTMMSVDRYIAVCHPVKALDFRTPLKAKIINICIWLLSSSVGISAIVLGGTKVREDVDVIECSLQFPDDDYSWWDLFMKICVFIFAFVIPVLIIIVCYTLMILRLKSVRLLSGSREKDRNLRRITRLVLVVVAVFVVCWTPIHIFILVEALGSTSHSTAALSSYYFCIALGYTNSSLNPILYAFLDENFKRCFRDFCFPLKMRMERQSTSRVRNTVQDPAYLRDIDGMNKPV
# How it was run: (§2)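 Membranes from cloned human receptors were incubated with compound and radioligand for 1 hour at room temperature. Bound ligand was collected on 0.3% PEI-soaked filters, washed with cold 50 mM Tris-HCl pH 7.4, and counted by scintillation. Percent inhibition was computed against DMSO totals and reference-ligand nonspecific wells.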
# Human μ-opioid (MOP) = biological target: T8, Human μ-opioid (MOP) (Homo sapiens, UniProt P35372); test: Radioligand binding, human μ-opioid (MOP) membranes, FlashPlate, [3H]-Naloxone; conditions: compound at 10 μM, [3H]-Naloxone
# T8 construct: purchased Perkin Elmer Biosignal
# T8 sequence (P35372 whole entry): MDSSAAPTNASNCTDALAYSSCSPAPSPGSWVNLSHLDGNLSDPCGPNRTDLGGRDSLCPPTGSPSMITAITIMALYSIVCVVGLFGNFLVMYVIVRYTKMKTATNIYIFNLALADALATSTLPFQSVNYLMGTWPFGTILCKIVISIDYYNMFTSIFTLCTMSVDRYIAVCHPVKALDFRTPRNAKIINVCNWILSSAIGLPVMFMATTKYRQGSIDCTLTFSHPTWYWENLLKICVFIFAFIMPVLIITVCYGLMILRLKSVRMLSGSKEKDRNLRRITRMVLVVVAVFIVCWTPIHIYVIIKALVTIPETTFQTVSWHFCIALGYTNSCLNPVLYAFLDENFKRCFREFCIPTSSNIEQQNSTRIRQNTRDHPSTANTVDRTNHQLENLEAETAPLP
# How it was run: as §1
# Human neurokinin (NK1) = biological target: T9, Human neurokinin (NK1) (Homo sapiens, UniProt P25103); test: Radioligand binding, human neurokinin NK1 membranes, filtration, [125I]-Substance P; conditions: compound at 10 μM, [125I]-Substance P
# T9 construct: purchased Perkin Elmer Biosignal
# T9 sequence (P25103 whole entry): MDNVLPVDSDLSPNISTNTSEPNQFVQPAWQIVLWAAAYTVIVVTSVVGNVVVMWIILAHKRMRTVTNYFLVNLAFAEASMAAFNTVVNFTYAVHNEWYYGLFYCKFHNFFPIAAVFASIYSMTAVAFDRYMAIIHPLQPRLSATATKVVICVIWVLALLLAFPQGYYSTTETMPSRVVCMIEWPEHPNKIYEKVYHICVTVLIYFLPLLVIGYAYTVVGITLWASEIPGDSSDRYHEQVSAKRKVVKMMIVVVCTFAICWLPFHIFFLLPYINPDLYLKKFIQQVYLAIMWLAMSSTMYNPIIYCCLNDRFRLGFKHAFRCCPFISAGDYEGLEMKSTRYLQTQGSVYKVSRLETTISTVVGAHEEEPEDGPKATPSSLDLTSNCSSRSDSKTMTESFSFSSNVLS
# How it was run: as §2
# Human δ-opioid (DOP) = biological target: T10, Human δ-opioid (DOP) (Homo sapiens, UniProt P41143); test: Radioligand binding, human δ-opioid (DOP) membranes, FlashPlate, [3H]-Bremazocine; conditions: compound at 10 μM, [3H]-Bremazocine
# T10 construct: purchased Perkin Elmer Biosignal
# T10 sequence (P41143 whole entry): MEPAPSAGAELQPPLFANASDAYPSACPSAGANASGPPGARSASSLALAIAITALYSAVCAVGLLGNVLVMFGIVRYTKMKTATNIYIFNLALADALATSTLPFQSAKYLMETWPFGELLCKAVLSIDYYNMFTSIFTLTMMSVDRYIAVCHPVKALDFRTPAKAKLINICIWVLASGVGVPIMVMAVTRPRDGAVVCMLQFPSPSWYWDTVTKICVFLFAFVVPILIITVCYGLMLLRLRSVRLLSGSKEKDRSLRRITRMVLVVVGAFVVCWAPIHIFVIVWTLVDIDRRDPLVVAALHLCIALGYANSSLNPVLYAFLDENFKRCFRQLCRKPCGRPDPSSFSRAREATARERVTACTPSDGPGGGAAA
# How it was run: as §1
# Human Melanocortin (MC4) = biological target: T11, Human Melanocortin (MC4) (Homo sapiens, UniProt P32245); test: Radioligand binding, human melanocortin MC4 membranes, FlashPlate, [125I]-NDP-αMSH; conditions: compound at 10 μM, [125I]-NDP-αMSH
# T11 construct: purchased Perkin Elmer Biosignal
# T11 sequence (P32245 whole entry): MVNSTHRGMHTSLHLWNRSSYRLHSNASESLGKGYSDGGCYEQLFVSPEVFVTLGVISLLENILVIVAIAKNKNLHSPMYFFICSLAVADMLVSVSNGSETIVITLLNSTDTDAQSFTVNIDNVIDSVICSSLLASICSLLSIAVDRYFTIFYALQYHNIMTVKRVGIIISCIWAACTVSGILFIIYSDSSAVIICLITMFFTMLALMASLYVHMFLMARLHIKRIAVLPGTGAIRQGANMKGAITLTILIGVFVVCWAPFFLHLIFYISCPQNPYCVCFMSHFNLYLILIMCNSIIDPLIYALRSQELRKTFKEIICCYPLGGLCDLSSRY
# How it was run: as §1
compound,measurement,setting,value
NCCC(=O)N[C@H]1C(OCc2ccc3ccccc3c2)O[C@H](COCc2ccc3ccccc3c2)[C@@H](O)[C@@H]1OCc1ccccc1 (stereo partly drawn) [compound 448],A11: inhibition of radioligand binding,Mouse urotensin (mUR2); mouse mUR2 membranes,− (“−” indicates less than 50% inhibition at 10 μM)
same,A6: inhibition of radioligand binding,"[1]; [125I]-S36057, human MCH1 membranes, 10 µM",− (“−” indicates less than 50% inhibition at 10 μM)
same,A5: inhibition of radioligand binding,Human melanocortin (MC5); human MC5 membranes,+ (“+” indicates greater than 50% inhibition at 10 μM)
same,A9: inhibition of radioligand binding,[2]; human NPY-Y1 membranes,− (“−” indicates less than 50% inhibition at 10 μM)
same,A10: inhibition of radioligand binding,"Human opioid (ORL1); human ORL1 membranes, 10 µM",− (“−” indicates less than 50% inhibition at 10 μM)
same,A3: inhibition of radioligand binding,"Human Melanocortin (MC3); human MC3 membranes, 10 µM",− (“−” indicates less than 50% inhibition at 10 μM)
same,A2: inhibition of radioligand binding,Human κ-Opioid (KOP); human KOP membranes,− (“−” indicates less than 50% inhibition at 10 μM)
same,A7: inhibition of radioligand binding,Human μ-opioid (MOP); human MOP membranes,− (“−” indicates less than 50% inhibition at 10 μM)
same,A8: inhibition of radioligand binding,Human neurokinin (NK1); human NK1 membranes,+ (“+” indicates greater than 50% inhibition at 10 μM)
same,A1: inhibition of radioligand binding,Human δ-opioid (DOP); human DOP membranes,− (“−” indicates less than 50% inhibition at 10 μM)
same,A4: inhibition of radioligand binding,Human Melanocortin (MC4); human MC4 membranes,+ (“+” indicates greater than 50% inhibition at 10 μM)
COCC1OC(OCc2ccc3ccccc3c2)C(NC(=O)CNC(=N)N)C(OCc2ccccc2)C1O (stereo not drawn) [compound 230],A11: inhibition of radioligand binding,Mouse urotensin (mUR2); FlashPlate,− (“−” indicates less than 50% inhibition at 10 μM)
same,A6: inhibition of radioligand binding,"[1]; [125I]-S36057, FlashPlate",− (“−” indicates less than 50% inhibition at 10 μM)
same,A5: inhibition of radioligand binding,Human melanocortin (MC5); FlashPlate,+ (“+” indicates greater than 50% inhibition at 10 μM)
same,A9: inhibition of radioligand binding,[2]; FlashPlate,− (“−” indicates less than 50% inhibition at 10 μM)
same,A10: inhibition of radioligand binding,Human opioid (ORL1); FlashPlate,− (“−” indicates less than 50% inhibition at 10 μM)
same,A3: inhibition of radioligand binding,Human Melanocortin (MC3); FlashPlate,− (“−” indicates less than 50% inhibition at 10 μM)
same,A2: inhibition of radioligand binding,Human κ-Opioid (KOP); filtration,− (“−” indicates less than 50% inhibition at 10 μM)
same,A7: inhibition of radioligand binding,Human μ-opioid (MOP); FlashPlate,− (“−” indicates less than 50% inhibition at 10 μM)
same,A8: inhibition of radioligand binding,Human neurokinin (NK1); filtration,+ (“+” indicates greater than 50% inhibition at 10 μM)
same,A1: inhibition of radioligand binding,Human δ-opioid (DOP); FlashPlate,− (“−” indicates less than 50% inhibition at 10 μM)
same,A4: inhibition of radioligand binding,Human Melanocortin (MC4); FlashPlate,− (“−” indicates less than 50% inhibition at 10 μM)
CSC1O[C@H](COCc2ccc3ccccc3c2)[C@@H](O)[C@@H](OCc2ccc(-c3ccccc3)cc2)[C@H]1NC(=O)CCCN (stereo partly drawn) [compound 299],"A11: inhibition of radioligand binding, mouse urotensin (mUR2)",Mouse urotensin (mUR2),− (“−” indicates less than 50% inhibition at 10 μM)
same,"A6: inhibition of radioligand binding, human melanin-concentrating hormone (MCH1)",[1]; [125I]-S36057,− (“−” indicates less than 50% inhibition at 10 μM)
same,"A5: inhibition of radioligand binding, human melanocortin (MC5)",Human melanocortin (MC5),− (“−” indicates less than 50% inhibition at 10 μM)
same,"A9: inhibition of radioligand binding, human neuropeptide Y (NPY-Y1)",[2],− (“−” indicates less than 50% inhibition at 10 μM)
same,"A10: inhibition of radioligand binding, human opioid (ORL1)",Human opioid (ORL1),− (“−” indicates less than 50% inhibition at 10 μM)
same,"A3: inhibition of radioligand binding, human melanocortin (MC3)",Human Melanocortin (MC3),− (“−” indicates less than 50% inhibition at 10 μM)
same,"A2: inhibition of radioligand binding, human κ-opioid (KOP)",Human κ-Opioid (KOP),− (“−” indicates less than 50% inhibition at 10 μM)
same,"A7: inhibition of radioligand binding, human μ-opioid (MOP)",Human μ-opioid (MOP),− (“−” indicates less than 50% inhibition at 10 μM)
same,"A8: inhibition of radioligand binding, human neurokinin (NK1)",Human neurokinin (NK1),+ (“+” indicates greater than 50% inhibition at 10 μM)
same,"A1: inhibition of radioligand binding, human δ-opioid (DOP)",Human δ-opioid (DOP),− (“−” indicates less than 50% inhibition at 10 μM)
same,"A4: inhibition of radioligand binding, human melanocortin (MC4)",Human Melanocortin (MC4),+ (“+” indicates greater than 50% inhibition at 10 μM)
